Consider eleven compounds from PubChem BioAssay (NCI).

The structures appear in SMILES notation.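 Compound exposure: 48 hours, 5 concentrations, 96-well plates. The concentration for 50% growth inhibition is given as GI50. TGI: concentration producing complete growth inhibition.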

Test systems include HOP-62 NSCLC; LOX IMVI melanoma; M14 melanoma; MCF7 breast; SK-MEL-28 melanoma; SK-OV-3 ovarian; SW-620 colon; UACC-257 melanoma; DMS 273 small cell lung; SNB-78 CNS.
What all share (assay): NCI-60 cell line screen, 48 h

For `Cc1ccc(Cl)cc1Nc1nc(C(F)(F)F)ccc1C(=O)Nc1cccc(C(F)(F)F)c1`, the GI50 in the experiment on HOP-62 NSCLC is 2.69 µM; in the experiment with LOX IMVI melanoma it was 3.73 µM; with M14 melanoma, 2.99 µM; in the experiment on MCF7 breast, 2.49 µM; in the experiment with SK-MEL-28 melanoma it was 4.55 µM; in the experiment on SK-OV-3 ovarian it was 1.74 µM. Further, the GI50 in the experiment with SW-620 colon was 4.55 µM; in the experiment with UACC-257 melanoma it was 2.93 µM. Moreover, the TGI in the experiment with HOP-62 NSCLC was found to be 10.3 µM; in the experiment on LOX IMVI melanoma it was 13.2 µM; with M14 melanoma, 10.3 µM; in the experiment with MCF7 breast, 9.5 µM; with SK-MEL-28 melanoma it was 18.3 µM; with SK-OV-3 ovarian it was 5.47 µM. The TGI with SW-620 colon was found to be 19.1 µM; in the experiment on UACC-257 melanoma, 8.35 µM.
In the case of `COc1ccccc1/C=C\c1cnnc2ccccc12`, the TGI in the experiment on HOP-62 NSCLC, in the experiment on LOX IMVI melanoma, in the experiment with M14 melanoma, in the experiment with MCF7 breast, in the experiment on SK-MEL-28 melanoma and in the experiment on SK-OV-3 ovarian was above 10 µM in each case. The TGI with SW-620 colon and in the experiment on UACC-257 melanoma was above 10 µM each time.
As to `O=C(CC(=O)N1N=C(c2ccccc2)C(N=Nc2ccc(C(=O)O)cc2)C1=O)Nc1ccc(F)cc1` (stereo not drawn), the TGI in the experiment on DMS 273 small cell lung is 78.7 µM; in the experiment on LOX IMVI melanoma, above 100 µM; in the experiment with M14 melanoma it was above 100 µM; in the experiment on SK-MEL-28 melanoma, above 100 µM; with SK-OV-3 ovarian, 62.6 µM; in the experiment with SNB-78 CNS, above 100 µM. Further, the TGI in the experiment with SW-620 colon and in the experiment on UACC-257 melanoma was above 100 µM each time.
With `CC(=O)NS(=O)(=O)c1ccc(NC(=O)COC(=O)c2cccc3c(=O)c4ccccc4[nH]c23)cc1`, the TGI with DMS 273 small cell lung, in the experiment with HOP-62 NSCLC, with LOX IMVI melanoma, with M14 melanoma, in the experiment with SK-MEL-28 melanoma and in the experiment with SK-OV-3 ovarian was above 100 µM throughout. The TGI in the experiment with SW-620 colon and in the experiment on UACC-257 melanoma was above 100 µM in each case.
As to `O=C1NC(=O)/C(=C/C=C/c2ccccc2)S1`, the GI50 was 1.37 µM in the experiment with HOP-62 NSCLC; 0.999 µM in the experiment with LOX IMVI melanoma; 2.1 µM in the experiment on M14 melanoma; 1.36 µM with MCF7 breast; 15.5 µM in the experiment on SK-MEL-28 melanoma; 38.7 µM in the experiment on SK-OV-3 ovarian. Moreover, the GI50 with SW-620 colon is 11.2 µM; in the experiment with UACC-257 melanoma it was 5.43 µM. The TGI with HOP-62 NSCLC is 33.1 µM; with LOX IMVI melanoma, 14.7 µM; in the experiment on M14 melanoma it was above 20.6 µM; with MCF7 breast, above 100 µM; in the experiment with SK-MEL-28 melanoma, 36 µM; in the experiment with SK-OV-3 ovarian it was above 100 µM. Further, the TGI in the experiment on SW-620 colon was above 59.1 µM; in the experiment with UACC-257 melanoma it was above 100 µM.
`COC(=O)/C=C/C(=O)C1C(C(=O)OC)C2(C(=O)OC)CCC1(C(=O)OC)N2` (stereo not drawn): the TGI in the experiment on HOP-62 NSCLC, with M14 melanoma, with SK-MEL-28 melanoma, in the experiment on SK-OV-3 ovarian and in the experiment with SNB-78 CNS was above 100 µM in each case.
Regarding `CC(=O)Oc1ccc(OC(C)=O)c2ccccc12`, the GI50 is 12.6 µM in the experiment with HOP-62 NSCLC; 14.8 µM in the experiment with LOX IMVI melanoma; 16.1 µM with M14 melanoma; 7.98 µM in the experiment on MCF7 breast; 13.3 µM in the experiment on SK-MEL-28 melanoma; 14.1 µM in the experiment on SK-OV-3 ovarian. Also, the GI50 is 13.8 µM in the experiment with SW-620 colon and 3.95 µM in the experiment on UACC-257 melanoma. Also, the TGI with HOP-62 NSCLC was 25.3 µM; with LOX IMVI melanoma, 30.7 µM; in the experiment with M14 melanoma it was 30.4 µM; in the experiment with MCF7 breast, 27.6 µM; in the experiment with SK-MEL-28 melanoma it was 26.5 µM; with SK-OV-3 ovarian, 27.1 µM. For the same compound, the TGI with SW-620 colon came out at 33.2 µM; in the experiment with UACC-257 melanoma, 13.8 µM.
Regarding `CCOC1OCCCC1Br` (stereo not drawn), the TGI in the experiment on HOP-62 NSCLC, in the experiment on LOX IMVI melanoma, with M14 melanoma, in the experiment with MCF7 breast, with SK-MEL-28 melanoma and with SK-OV-3 ovarian was above 100 µM each time. In addition, the TGI in the experiment with SW-620 colon and in the experiment on UACC-257 melanoma was above 100 µM each time.
With `C=C(C=O)C1CC(=O)C(C(=O)OC)[C@@H]2O[C@@](C)(CC2=O)C[C@@H]2OC(=O)[C@]3(O[C@@H]23)[C@@H](C(=O)OC)C1` (stereo partly drawn), the GI50 with HOP-62 NSCLC is 25.6 µM; in the experiment on LOX IMVI melanoma, 7.94 µM; with M14 melanoma, 14.8 µM; with MCF7 breast, 11.1 µM; in the experiment on SK-MEL-28 melanoma it was 20.2 µM; with SK-OV-3 ovarian, 60.6 µM. For the same compound, the GI50 in the experiment on SW-620 colon is 12.2 µM; in the experiment on UACC-257 melanoma, 10.2 µM. Besides, the TGI in the experiment on HOP-62 NSCLC was 58.8 µM; with LOX IMVI melanoma, 21.3 µM; with M14 melanoma, 30.4 µM; in the experiment on MCF7 breast it was 28 µM; in the experiment with SK-MEL-28 melanoma it was 66.5 µM; with SK-OV-3 ovarian it was above 100 µM. For the same compound, the TGI was 47.3 µM with SW-620 colon and 28.6 µM in the experiment on UACC-257 melanoma.
As for `COc1ccc(-c2oc(=O)ccc2C#Cc2cc(OC)c(OC)c(OC)c2)cc1O`, the GI50 in the experiment on HOP-62 NSCLC is 18.5 µM; with LOX IMVI melanoma, 24.2 µM; in the experiment on M14 melanoma it was 26.9 µM; with MCF7 breast it was 15.9 µM; with SK-MEL-28 melanoma, 37.7 µM; in the experiment with SK-OV-3 ovarian it was 30.7 µM. For the same compound, the values for the GI50 in the experiment with SW-620 colon and in the experiment with UACC-257 melanoma were 31.1 µM and 36.4 µM, respectively. Besides, the TGI is 87.4 µM in the experiment on HOP-62 NSCLC; above 100 µM in the experiment on LOX IMVI melanoma; above 100 µM in the experiment with M14 melanoma; 51.7 µM in the experiment with MCF7 breast; above 100 µM in the experiment with SK-MEL-28 melanoma; above 100 µM in the experiment on SK-OV-3 ovarian. Moreover, the TGI in the experiment on SW-620 colon and with UACC-257 melanoma was above 100 µM in each case.
For the compound `COc1ccc(/C=C/c2c(C(=O)/C=C/c3ccc(Cl)cc3)c(C)nc3ccccc23)cc1`, the GI50 was 2.12 µM with HOP-62 NSCLC; 1.51 µM in the experiment with LOX IMVI melanoma; 1.83 µM in the experiment on M14 melanoma; 1.29 µM in the experiment with MCF7 breast; 1.81 µM in the experiment on SK-MEL-28 melanoma; 2.82 µM in the experiment on SK-OV-3 ovarian. In addition, the GI50 in the experiment with SW-620 colon is 1.85 µM; in the experiment on UACC-257 melanoma, 2.09 µM. Further, the TGI in the experiment with HOP-62 NSCLC is 4.83 µM; in the experiment on LOX IMVI melanoma it was 2.9 µM; in the experiment with M14 melanoma, 4.15 µM; in the experiment on MCF7 breast, 4.11 µM; in the experiment with SK-MEL-28 melanoma, 3.42 µM; with SK-OV-3 ovarian, 11.4 µM. The TGI with SW-620 colon was 6.02 µM; in the experiment with UACC-257 melanoma, 4.55 µM.
